Legend:
Assay type in all cases: in vivo, C57BL/6J male mice
[1] = Body weight, food intake and organ weights of aged mice fed 3% D-ribo-2-hexulose diet for 12 weeks
Protocol: Twenty-one 48-week-old C57BL/6J male mice and seven 8-week-old C57BL/6J male mice were purchased from JA BIO Inc. (Korea). The purchased animals were raised in a breeding room with a controlled temperature (20 to 23° C.) and a light/dark cycle (a 12-hour cycle), and were provided with pelletized commercial non-purified feed for the first week.
(§1) Specifically, a negative control group (NC, n=7, American Institute of Nutrition AIN-93G Semisynthetic diet); a D-ribo-2-hexulose-treated group (D-ribo-2-hexulose; DRH, n=7; a portion of cellulose in AIN-93G was replaced with 3% D-ribo-2-hexulose). […] The dose of D-ribo-2-hexulose was set at 3% based on previous animal studies. In the previous studies, the dose of D-ribo-2-hexulose was determined to be 3% in order to investigate a biological effect at a lower dose than the dose. During the experiment, the mice had free access to distilled water, and the food intakes and body weights of the mice were measured weekly, and blood glucose was measured once every 4 weeks. All animal experiments were approved by the Animal Research Ethics Committee of KyungPook National University (Approval Number: KNU-2020-109).

gastrocnemius tissue = experiment: H&E and Sirius red staining of gastrocnemius tissue
Protocol: (§2) For morphological tissue observation, parts of liver and muscle tissues were fixed with a 10% formaldehyde solution for 24 hours. Thereafter, the samples were subjected to replacement with the same solution twice, dehydrated twice with ethanol, embedded in paraffin, and treated with poly-L-lysine to prepare tissue slices having a thickness of 5 μm. For morphological analysis, among the prepared tissue sections, the liver tissue was stained with H&E and MT, and the muscle tissue was stained with H&E and Sirius red, and magnified 200 times under an optical microscope. For IHC analysis, the muscle tissue was stained with IGF-1 and Myostatin, and then observed under an optical microscope.

myostatin = experiment: IHC analysis of muscle tissue, myostatin; details: gastrocnemius muscle fibers, increase in NC vs YC
Protocol: as §2

[2] = tested on: MyoD, Myf5, Myf6, Myogenin, Mef2, MuRF1, Atrogin1, FoxO3; experiment: Real-time PCR of muscle strength-related genes
Protocol: After total RNA was isolated, total complementary DNA (cDNA) was synthesized. For real-time PCR analysis, template cDNA was diluted with RNAse-free water and used at a concentration of 25 ng/μL. Then, gene expression was analyzed using a QuantitTeck SYBR Green PCR kit (QIAGEN, Germany).
Each of the reaction solutions consisted of 10 μL of SYBR Green, 2 μL of a template, and 200 μM primers. RNAse-free water was added to a final volume of 20 μL, and reacted at 94° C. for 15 seconds, and then 58° C. and 72° C. for 30 seconds. The reaction solution was reacted 40 times at 65° C. for 30 seconds at 15 seconds per cycle. In this case, by monitoring the fluorescence signal for each cycle and analyzing the resulting threshold cycle (Ct), mRNA expression between the respective experimental groups was quantitatively analyzed using a CFX96 Real-time system (Bio-Rad, USA). GAPDH (Gene ID 14433) was used as an internal transcriptional marker, and the gene primers used for amplification were as follows: MyoD (myoblast determination protein 1, Gene ID 17927), Myf5 (Gene ID 17877), Myf6 (Gene ID 17878), Myogenin (Gene ID 17928), Mef2 (Gene ID 17260), MuRF1 (Gene ID […]), Atrogin1 (Gene ID 67731), FoxO3 (Gene ID 56484), CerS1 (Gene ID 93898(3)1), CIDEC1 (Gene ID 12700), SCD1 (Gene ID 20249), Adipsin (complement factor D, Gene ID 11537), Adiponectin (Gene ID 11450), Haptoglobin (Gene ID 15439), and Neuronatin (Gene ID 18111).

[3] = tested on: CISH, CerS1, Adiponectin, Adipsin, CIDEC, Haptoglobin, Neuronatin, SCD1; experiment: mRNA sequencing of gastrocnemius tissue (differentially expressed genes); details: vs NC group, FC cutoff 2 or more, p < 0.05
[4] = tested on: hepatic glucose-6-phosphatase (G6P); experiment: Hepatic glucose-6-phosphatase measurement; details: DRH group vs NC group
[5] = Lipid profiles of muscles and plasma
Protocol: Plasma TG and TC analysis was performed using an enzyme kit (Asan Pharmaceutical Co., Ltd., Korea). Free fatty acid (FFA) was also measured using an enzyme kit (Abcam., USA). Liver and muscle lipids were extracted, and the dried lipid residue was then dissolved in 1 mL of ethanol for the measurement of TG, TC, and FFA. For emulsification, Triton X-100 and a sodium cholate solution were added to 200 μL of the dissolved lipid solution. The TG, TC, and FFA were analyzed in the same kit as the enzyme kit used for plasma lipid analysis.

[6] = Muscle and liver glycogen and fasting blood glucose
Protocol: as §1

[7] = Testosterone and cortisol levels
Protocol: For cytokine analysis, plasma cytokines (TNF-α, IL-1β, and IL-4) were measured with a Merck Millipore product (MCYTOMAG-70K, Merck, USA). Plasma (30 μL) from each mouse was analyzed in duplicate. Hormone analysis was performed using a cortisol and testosterone parameter assay kit (R&D Systems, USA).

[8] = DRH group, aged mice, AIN-93G + 3% DRH 12 weeks, Mean ± SD
[9] = decrease in NC vs YC, DRH vs NC significant

## O=C(CO)[C@H](O)[C@H](O)[C@H](O)CO [DRH, D-ribo-2-hexulose]
[1]; DRH group vs NC group
  final body weight: significantly lower
  kidney weight: increased
  liver weight: decreased
  spleen weight: no significant difference
  weight gain: significantly lower
[1]; [8]
  Final BW: 37.59 ± 0.56^$$ g
  Total BWG: 1.36 ± 0.20^$$$ g
  kidney weight: 1.10 ± 0.02^$$ g per 100 g BW
  liver weight: 3.71 ± 0.07^$ g per 100 g BW
  spleen weight: 0.20 ± 0.02 ^ g per 100 g BW
Gastrocnemius tissue; DRH group
  progression of fibrosis (Sirius red staining): reduced to that of the YC group
Gastrocnemius tissue; reduction observed in NC group
  size of muscle fibers (H&E staining): improved
myostatin
  expression level of myostatin: suppressed this increase to the level of the YC group
[2]; all three groups (YC, NC, DRH)
  expression of Atrogin1 gene: no significant difference
  expression of FoxO3 gene: no significant difference
  expression of MuRF1 gene: no significant difference
  expression of MyoD gene: no significant difference
[2]; [9]
  expression of Myf5 gene: partially improved
  expression of Myf6 gene: partially improved
  expression of Myogenin gene: partially improved
[3]
  Adiponectin expression (mRNA-seq): down-regulated
  Adipsin expression (mRNA-seq): down-regulated
  CIDEC expression (mRNA-seq): down-regulated
  CISH expression (mRNA-seq): up-regulated
  CerS1 expression (mRNA-seq): up-regulated
  Haptoglobin expression (mRNA-seq): down-regulated
  Neuronatin expression (mRNA-seq): down-regulated
  SCD1 expression (mRNA-seq): down-regulated
[4]
  hepatic glucose-6-phosphatase (G6P): significantly increased
[5]; DRH group vs NC group
  muscle fatty acid level: no significant difference
  muscle total cholesterol (TC) level: no significant difference
  plasma fatty acids: significantly decreased
[5]; increase in NC vs YC
  plasma TC level: improved
  plasma TG level: improved
[5]; increase with aging
  muscle triglyceride (TG) level: significantly reduced this increase
[6]; at 12 weeks, DRH group vs NC group
  fasting blood glucose level: significantly decreased
[6]; between the groups
  liver glycogen content: not significantly different
[6]; quadriceps, between the groups
  muscle glycogen content: not significantly different
[7]; DRH group
  cortisol level: decreased
[7]; DRH group vs NC group
  testosterone level: did not show a significant difference

— patent US12582614B2, “Composition for preventing, alleviating or treating sarcopenia, containing D-ribo-2-hexulose as active ingredient” (KYUNGPOOK NATIONAL UNIVERSITY INDUSTRY-ACADEMIC COOPERATION …, priority 2021, dated 2026)
